Counter-ions that a name gives are not always drawn.

One assay deals with NASH mice. Nature of the assay: Glucose tolerance testing (ipGTT) in NASH mice. It counts as in vivo, C57B1/6J mice. The protocol:
Following 120-150 days on the HFD, mice in the NASH group were treated with Compound 2 (5 or 10 mg/Kg/day) or vehicle (10% Encapsin) for 42 days. Fasting and post prandial (PP) blood draws were taken at the beginning of the study (compound treatment) to identify and confirm the NASH group and during the study to evaluate various pharmacological responses. Since the NASH mice are severely hyperinsulinemic compared to NC mice, glucose tolerance testing (GTT, measures peripheral insulin resistance) was performed to evaluate the effect of Compound 2 on improvement of peripheral insulin sensitivity. […] Body weight and food intake was measured throughout the study.
Mice were then fasted overnight at 1700 hours for an experiment the following morning at 9:30 am. The animals were restrained in a towel to reduce handling stress and blood collection was from tail nick. Heat lamps were turned on 5 minutes prior to blood draws to warm animals slightly facilitating the flow of blood resulting in a decreased collection time. Blood glucose was measured using an Accu-check Compact Monitoring Kit (Roche Diagnostics, Indianapolis, Ind., Cat #3149137). Blood was also collected (˜100 μl) into EDTA microvettes (Sarstedt, Newton, N.C., Cat#16.444.100) for insulin ELISA analysis. After baseline blood collection, 2 g/kg Dextrose (Hospira, Lake Forest, Ill., NDC#0409-6648-02) was administered by intraperitoneal injection followed by glucose readings and blood draws (˜50 ul) at time points of 15, 30, 60, and 120 minutes post glucose challenge. Mice were kept in their home cages in between collection intervals.
Insulin fasting plasma samples were tested using Mercodia ultra sensitive mouse insulin ELISA: 2.5 μL EDTA plasma, ALPCO Diagnostics, Uppsala, Sweden, Cat #08-10-1150-99, LOQ (0.22-7.1 μg/L). Mouse JE/MCP-1 post prandial samples were collected at sacrifice. 12.5 μL EDTA plasma, R & D Systems, Minneapolis, Minn., Cat # MFE00, LOQ (15.6-1000 pg/mL).

Another assay concerns PPAR. To be noted: shown in US2006/0167012A1 and US2006/0205736A1; cited from earlier work.
Another assay deals with liver of NASH mice. Nature of the assay: Liver gene expression by Affymetrix microarray in NASH mice. Type of assay: in vivo, C57B1/6J mice. To be noted: liver mRNA, 10 mg/kg/day, 35 days. The protocol: Gene expression was analyzed using Affynmatrix microarray followed by GOBY software analyses. Data (Table 5, below) represent average fold change in gene expression in the Compound 2/vehicle group.
Gene expression was analyzed using Affynmatrix microarray followed by GOBY software analyses. Data (Table 6, below) represent average fold change in gene expression in the Compound 2/vehicle group.
Animals were placed in Surgivet/ANESCO ISOTECY chamber (Vetequip Incorporated, Waukesha, Wis.) filled with Isoflurane (1-chloro-2,2,2-trifluoroethyl difluoromethyl ether, CAS#26675-46-7), USP Liquid for Inhalation (Baxter, Deerfield, Ill., Cat #10019-360-40) for anesthetization. Cardiac blood is taken with BD 1 mL Syringe Tuberculin Slip Tip (Becton, Dickinson & Company, Franklin Lakes, N.J., Cat #309602) with B-D25G 5/8 needle (Becton Dickinson, Franklin Lakes, N.J., Cat #305122) and was saved into Microtainer brand tube with EDTA (Becton, Dickinson and Company, Cat #365973). The heart, liver, kidney, adipose (white and brown) and muscle were collected using fine forceps and fine scissors. Tissues were stored in aluminum foils and flash frozen in liquid nitrogen for further analyses. ˜100 mg of heart, liver, adipose (white) were saved in tubes containing 1 mL RNAlater RNA Stabilization Reagent (Qiagen, Valencia, Calif., Cat #76106) and flash frozen in liquid nitrogen for gene array analyses. The liver, muscle and adipose (white) were fixed in 10% Zinc Formalin (Fisher Diagnostics, Middletown, Va., Cat#032-065, CAS #50-00-0) for histology analyses. In addition, the liver and muscle were frozen in Cryomold Standard Disposable Specimen Mold 25 mm×20 mm×5 mm (Sakura Finetechnical U.S.A., Inc., Torrance, Calif., Cat #4557) with O.C.T Compound (Sakura Finetechnical U.S.A., Inc., Torrance, Calif., Cat #4583) and frozen on dry ice mixed with 2-Methylbutane (Isopentane) (Sigma-Aldrich, St. Louis, Mo., CAS #78-78-4, Cat #270342-2L.
Total RNA was extracted using the RNeasy mini protocol (Qiagen, Cat: 74106), gene array analyses was performed using Mouse Genome 430.2.0 Affymetrix CHIP and VAMPIRE analyses software at the Veterans Affair, UCSD core facility, UCSD, San Diego, Calif.

Setting [1] is: oral administration, NASH mice, p<0.05 vs. vehicle.

As for `C[C@@H]1CN(Cc2ccc(OC(F)(F)F)cc2)C[C@H](C)N1S(=O)(=O)c1cccc2c1C[C@@H](C(=O)O)C2` [Compound 2, (S)-4-[cis-2,6-Dimethyl-4-(4-trifluoromethoxy-benzyl)-piperazine-1-sulfonyl]-indan-2-carboxylic acid tosylate], the “insulin secretion during ipGTT” value in the assay on NASH mice (21 days, 10 mg/Kg/day, compared to vehicle-treated animals) is listed as “reduced insulin secretion”. Further, the peripheral insulin resistance result in the assay on NASH mice (21 days, 10 mg/Kg/day, ipGTT, compared to vehicle-treated animals) is given as “improved peripheral insulin resistance”. For the same molecule, in the assay with NASH mice (setting [1]), the glucose disposal result is listed as “improved glucose disposal” and the insulin sensitivity entry is recorded as “improved insulin sensitivity”. For the same molecule, in the assay with PPAR, the PPAR modulator activity entry was “PPAR modulators”. Further, in the assay with liver of NASH mice, the “S100 A6 (inflammatory marker) gene expression vs. vehicle” value is reported as “reduction”. Besides, in the assay on liver of NASH mice (4 hours post dosing, fed state), the “CD14 (Monocyte/Macrophage marker) gene expression, Fold change over vehicle” value is −2 fold; the “GADD45 (Inflammatory marker) gene expression, Fold change over vehicle” value is reported as 8 fold; the “ICAM 1 (Inflammatory marker) gene expression, Fold change over vehicle” value is −2.1 fold; the “MARCO (Monocyte/Macrophage marker) gene expression, Fold change over vehicle” value is −2.5 fold. In the assay with liver of NASH mice (4 hours post dosing, fed state), the “Orosomucoid 2 (Acute Phase Reactant Protein) gene expression, Fold change over vehicle” value is −2.4 fold; the “Serum myeloid A1 (Acute Phase Reactant Protein) gene expression, Fold change over vehicle” value is −1.9 fold; the “Serum myeloid A2 (Acute Phase Reactant Protein) gene expression, Fold change over vehicle” value was −2.2 fold; the “CTGF gene expression, Fold change over vehicle” value is “Not changed”. In addition, in the assay with liver of NASH mice (4 hours post dosing, fed state), the “Col1a1 gene expression, Fold change over vehicle” value was −6.3 fold; the “Col1a2 gene expression, Fold change over vehicle” value is recorded as −3 fold; the “Col3a1 gene expression, Fold change over vehicle” value is listed as −3 fold; the “Col5a2 gene expression, Fold change over vehicle” value was −2.2 fold. In the assay with liver of NASH mice (4 hours post dosing, fed state), the “Col6a2 gene expression, Fold change over vehicle” value is given as −8.9 fold; the “Fibronectin gene expression, Fold change over vehicle” value is “Not changed”; the “Timp 1 gene expression, Fold change over vehicle” value is −4.5 fold; the “Timp 2 gene expression, Fold change over vehicle” value is “Not changed”. For the same molecule, the “Vimentin gene expression, Fold change over vehicle” value in the assay on liver of NASH mice (4 hours post dosing, fed state) is reported as −2.3 fold.

The record behind these values is patent US9463189B2 (BPV Holdings, LLC, priority 2007, dated 2016).
